How the values were obtained:
SJSA-1 = experiment: Antiproliferative activity against human SJSA1 cells
HCT-116 = experiment: Antiproliferative activity against human HCT116 cells
SW480 = experiment: Antiproliferative activity against human SW480 cells
MDA-MB-435 = experiment: Antiproliferative activity against human MDA435 cells
RKO = experiment: Antiproliferative activity against human RKO cells

IC50 (SJSA-1) [µM] | IC50 (HCT-116) [µM] | IC50 (SW480) [µM] | IC50 (MDA-MB-435) [µM] | IC50 (RKO) [µM] | Compound
4.55 | – | – | – | – | O=C1N=C(NCc2cccs2)S/C1=C/c1ccc2ncccc2c1
3.24 | 1.58 | 3.07 | 2.03 | 1.39 | O=C1N=C(N[C@@H](CO)Cc2ccccc2)SC1=Cc1ccc2ncccc2c1 [(R,Z)-2-(1-hydroxy-3-phenylpropan-2-ylamino)-5-(quinolin-6-ylmethylene)thiazol-4(5H)-one]
1.85 | – | – | – | – | O=C1N=C(N[C@@H]2C[C@H]2c2ccccc2)SC1=Cc1ccc2ncccc2c1 [(Z)-2-((1R,2S)-2-phenylcyclopropylamino)-5-(quinolin-6-ylmethylene)thiazol-4(5H)-one]

— BindingDB's records for doi:10.1016/j.bmcl.2007.01.081 (Roche Research Center, 2007)
